{"source": "patent US20220288048A1", "about": "“PIMAVANSERIN FOR TREATING SCHIZOPHRENIA OR FOR TREATING PSYCHOSIS SECONDARY TO NEURODEGENERATIVE DISORDERS OR DEPRESSIVE DISORDER” (ACADIA Pharmaceuticals Inc., priority 2019, published 2022)", "system": "subjects with schizophrenia who have predominant negative symptoms", "assay": "Phase 2, 26-week adjunctive pimavanserin study: safety", "format": "in vivo, human", "details": "26-week study", "experimental": "This study is conducted as a Phase 2, 26-week, randomized, double-blind, placebo-controlled, multicenter, multinational outpatient study in subjects with schizophrenia who have predominant negative symptoms while on adequate treatment with an antipsychotic. Schizophrenia is defined by the Diagnostic and Statistical Manual of Mental Disorders, Fifth Edition (DSM-5), confirmed by a customized module of the Structured Clinical Interview for DSM-5, Clinical Trials Version (SCID-5-CT). This study enrolls approximately 403 subjects with predominant negative symptoms of schizophrenia. In the study, patients were randomized to receive either pimavanserin or placebo added to their current background antipsychotic treatment for 26 weeks in duration. At baseline all patients were started on a daily dose of 20 mg of pimavanserin or placebo with dose adjustments allowed up to 34 mg or down to 10 mg during the first eight weeks of treatment. […]\nSafety will be evaluated by analyses of adverse events, vital signs, ECGs, physical examination results, and clinical laboratory tests (including urinalysis), and the Abnormal Involuntary Movement Scale (AIMS), the Barnes Akathisia Rating Scale (BARS), the Simpson-Angus Extrapyramidal Side Effects Scale (SAS), and the Columbia Suicide Severity Rating Scale (C-SSRS)."}
{"smiles": "CC(C)COc1ccc(CNC(=O)N(Cc2ccc(F)cc2)C2CCN(C)CC2)cc1", "note": "[Pimavanserin, N-(4-Fluorophenylmethyl)-N-(1-methylpiperidin-4-yl)-N′-(4-(2-methylpropyloxy)phenylmethyl)carbamide]", "values": [{"measurement": "Vital signs, weight, metabolic syndrome, and extrapyramidal symptoms compared to adjunctive placebo", "value": "did not result in clinically significant differences"}, {"measurement": "Rate of adverse events", "setting": "adjunctive pimavanserin", "value": 40, "unit": "%"}]}
